Source: US20160037780A1, “BORON CONTAINING COMPOUNDS AND USES THEREOF” (EMPIRE TECHNOLOGY DEVELOPMENT LLC, priority 2013, published 2016)

Legend:
[1] = 14-day leaching procedure (AWPA E11-10), boron in leachate by azomethine H method; assay type: physicochemical; conditions: 14-day water leaching of treated blocks
Experimental: (§1) Six blocks from each treatment group were subjected to a 14-day leaching procedure as described AWPA Standard E11-10 from the American Wood Preservers' Association's (AWPA) “Standard method of determining the leachability of wood preservatives” in the AWPA Book of Standards, Birmingham, Ala., 2010. The blocks were immersed in an excess of water, and subjected to a short vacuum. The water was then changed after 6, 24, and 48 hours of immersion and at 48 hour intervals over a total of 14 days. An aliquot of the leachate was retained at each time point for later analysis. The leached blocks were then reconditioned to constant weight at 23° C. and 65% relative humidity. Leachate collected at each time point was analyzed for boron using the azomethine H method as described in AWPA Standard A2-10 Method 16. All of the blocks were briefly soaked with water prior to being placed in plastic bags and sterilized by exposure to 2.5 mrad of ionizing radiation from a cobalt 60 source.

[2] = system: Gloeophyllum trabeum; test: Soil block test (AWPA E10-10), decay resistance of treated wood blocks; assay type: cell-based; conditions: 12 weeks at 28° C., mean of 6 blocks (SD)
Experimental: Soil Block Test. The soil block test (AWPA, 2010) is a relatively rapid laboratory method for assessing the decay resistance of wood-based materials under conditions that favor rapid fungal attack of wood. Soil block tests were conducted upon blocks treated with compounds and compositions described herein. Leachates from the blocks were collected prior to fungal exposure and analyzed.
Ponderosa pine (Pinus ponderosa L) sapwood blocks (19 mm cubes) were oven dried (60° C.) and weighed. The blocks were then randomly allocated, in groups of 12, to the various treatment groups. Treatment solutions containing actives (e.g., the compounds and compositions described herein) were supplied as 10% active ingredient concentrates. These solutions were then diluted with toluene to produce treatment solutions containing 0.1, 0.5, 1.0 and 3.0% active ingredient solutions. The blocks from a given group were placed in a container and covered with an excess of a given treatment solution. This container was placed in a desiccator. A vacuum was drawn over the vessel and then released. The blocks were removed from the treatment solution and blotted to remove excess solution before being weighed. The difference between the original dry weight and the wet weight was used to calculated net solution uptake. The blocks were stored wet for 3 days at 20-23° C. to allow any fixation reactions to proceed before being oven dried at 60° C. and weighed. The blocks were then conditioned to constant weight at 23° C. and 65% relative humidity prior to further testing.
as §1
Decay chambers were prepared by half filling 454 ml French squares with moisture forest loam and placing a western hemlock feeder strip on the soil surface as described in AWPA Standard E10-10 “Standard method of testing wood preservatives by laboratory soil-block cultures.” The bottles were then loosely capped and autoclaved for 45 minutes at 121° C.
After cooling, the bottles were inoculated with 2 to 3 mm diameter malt agar disks cut from the actively growing edges of cultures of the test fungus, Gloeophyllum trabeum (Pers. ex Fr.) Murr. (Isolate: Madison 617). This fungus causes a brown rot of wood and tends to have some tolerance to boron compounds. The agar plugs were placed on the edges of the wood feeder strips, and the jars were loosely capped (to allow air exchange), and incubated until the feeder strip was thoroughly covered with fungal mycelium. The sterile test blocks were then placed on the surfaces of the feeder strips, the bottles were loosely capped and incubated at 28° C. for 12 weeks.
At the end of the incubation period, the blocks were removed, scraped clean of adhering mycelium and weighed to determine wet weight. The blocks were then oven dried (60° C.) and weighed. Differences between initial and final oven-dry weight were used as a measure of the decay resistance of each material.

Borate
Boron concentrations in leachates (rank among formulations) [1]: highest | Average Wood Weight Loss ([2]; 0.1% B, Leaching + (first line of treatment)): 50.8 (4.2) % | Average Wood Weight Loss ([2]; 0.1% B, second line of treatment, Leaching +): 53.8 (11.5) % | Average Wood Weight Loss ([2]; 0.5% B, Leaching + (first line of treatment)): 46.5 (3.3) % | Average Wood Weight Loss ([2]; 0.5% B, second line of treatment, Leaching +): 46.3 (2.4) % | Average Wood Weight Loss ([2]; 1.0% B, Leaching + (first line of treatment)): 53.6 (4.3) % | Average Wood Weight Loss ([2]; 1.0% B, second line of treatment, Leaching +): 48.3 (8.7) % | Average Wood Weight Loss ([2]; 3.0% B, Leaching + (first line of treatment)): 51.8 (8.3) % | Average Wood Weight Loss ([2]; 3.0% B, second line of treatment, Leaching printed + (probably non-leached)): 27.3 (6.9) %
